Patent US8470829B2 (priority 2004, dated 2013)
Like-named read-outs stand apart in the source and are kept apart here.

Tests used:
human androgen receptor [1] = molecular target: T1, human androgen receptor (Homo sapiens, UniProt P10275); assay: Measurement of agonist effect on androgen receptor (reporter gene assay, 11A11B2 cells); format: cell-based; details: compound concentration showing a transcription activity of 5% (0.1 nmol/L DHT = 100%, assay medium alone = 0%), 48 hours
T1 construct: expressed in transfected cells
T1 sequence (P10275 1-920): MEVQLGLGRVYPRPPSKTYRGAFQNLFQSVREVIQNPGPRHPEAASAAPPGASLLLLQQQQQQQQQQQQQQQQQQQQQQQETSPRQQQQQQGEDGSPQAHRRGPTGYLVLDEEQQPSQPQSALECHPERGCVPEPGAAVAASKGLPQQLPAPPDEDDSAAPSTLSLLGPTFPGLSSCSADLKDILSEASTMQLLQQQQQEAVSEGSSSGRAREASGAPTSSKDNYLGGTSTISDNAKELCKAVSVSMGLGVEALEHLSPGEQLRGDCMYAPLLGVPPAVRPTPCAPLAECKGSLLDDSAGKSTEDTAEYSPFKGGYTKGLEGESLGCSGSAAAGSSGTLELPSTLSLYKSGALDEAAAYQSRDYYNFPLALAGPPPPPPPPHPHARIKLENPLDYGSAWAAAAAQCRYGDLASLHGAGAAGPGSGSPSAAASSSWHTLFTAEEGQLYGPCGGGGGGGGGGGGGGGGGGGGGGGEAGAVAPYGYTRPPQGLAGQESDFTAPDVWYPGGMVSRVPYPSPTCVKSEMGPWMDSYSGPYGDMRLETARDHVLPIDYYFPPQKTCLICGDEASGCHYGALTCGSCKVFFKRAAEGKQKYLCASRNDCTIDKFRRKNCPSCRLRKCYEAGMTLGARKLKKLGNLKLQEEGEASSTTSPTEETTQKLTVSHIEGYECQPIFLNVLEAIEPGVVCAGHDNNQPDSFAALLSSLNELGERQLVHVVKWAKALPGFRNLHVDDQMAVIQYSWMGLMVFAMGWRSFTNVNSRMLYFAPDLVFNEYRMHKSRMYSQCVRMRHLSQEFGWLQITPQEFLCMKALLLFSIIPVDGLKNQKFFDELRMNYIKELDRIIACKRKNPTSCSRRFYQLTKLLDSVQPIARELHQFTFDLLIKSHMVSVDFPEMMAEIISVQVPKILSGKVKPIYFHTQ
Protocol: (§1) HeLa cells (purchased from Dai-Nippon Seiyaku K. K.) were cultured overnight in Dulbecco's Modified Eagle Medium containing no phenol red, but containing 3% charcoal-treated fetal bovine serum (hereafter referred to as DCC-FBS) (this medium is hereafter referred to as phenol-red-free DMEM). An MMTV-Luc-Hyg vector (reporter plasmid with mouse mammary tumor virus long terminal repeat, containing an androgen response element and a hygromycin resistance gene: a vector obtained by substituting a chloramphenicol acetyl transferease gene of a GM-CAT vector (A.T.C.C No. 67282) purchased from the A.T.C.C. with the firefly luciferase gene, and inserting a hygromycin resistance gene as a drug resistant gene), and pSG5-hAR-neo (human androgen receptor expression vector: a vector having an androgen receptor gene under the control of the SV40 promoter, and having a neomycin resistance gene inserted as a drug resistance gene) were transfected into the HeLa cells using an FuGENE™ 6 Transfection Reagent (obtained from Roche).
(§2) The clone cells thus obtained (11A11B2 cells) were maintained and propagated using DMEM containing 400 μg/mL neomycin, 200 μg/mL hygromycin and 10% FBS, and were propagated using phenol-red-free DMEM containing 10% DCC-FBS three to four days prior to the performance of an androgen receptor reporter gene assay.
The 11A11B2 cells were inoculated in a white clear-bottomed 96-well microplate (COSTAR) so that the cell concentration was 1.0×10^4/well, and were cultured overnight using phenol-red-free DMEM containing 3% DCC-FBS (hereafter referred to as the assay medium). Samples of the assay medium containing the compounds of the Examples and compounds of the Comparative Examples were added so that the final concentrations of the compounds of the Examples and compounds of the Comparative Examples were 1, 10, 100, 1,000 and 10,000 nmol/L), and the cells were cultured for 48 hours, after which the transcription activity value was measured. The transcription activity was measured using a Bright-Glo™ Luciferase Assay System (Promega).
The transcription activity rates of the compounds of the Examples were calculated from the transcription activity measured by the abovementioned method, with the transcription activity value obtained at 0.1 nmol/L DHT taken as 100%, and the transcription activity value in the case of the assay medium alone taken as 0%. The compound concentration showing a transcription activity of 5% (EC5 value) was calculated from a linear equation for two points on either side of 5%.

human androgen receptor [2] = molecular target: T1, human androgen receptor; assay: Investigation of antagonist effect on androgen receptor (reporter gene assay, 11A11B2 cells, with DHT); format: cell-based
Protocol: as §1, §2
The 11A11B2 cells were inoculated in a white clear-bottomed 96-well microplate (COSTAR) so that the cell concentration was 1.0×10^4/well, and were cultured overnight. The assay medium containing DHT was added so that the final concentration of DHT was 0.1 nmol/L, and samples of the assay medium containing the compounds of the Examples or compounds of the Comparative Examples were added so that the final concentrations of the compounds of the Examples or compounds of the Comparative Examples were 1, 10, 100, 1,000 and 10,000 nmol/L, respectively. After culturing for 48, hours, the transcription activity values were measured. The transcription activity was measured using a Bright-Glo™ Luciferase Assay System (Promega).
The transcription activity rates of the compounds of the Examples were calculated from the transcription activity measured by the abovementioned method, with the transcription activity value obtained at 0.1 nmol/L DHT taken as 100%, and the transcription activity value in the case of the assay, medium alone taken as 0%.

[3] = with 0.1 nmol/L DHT, transcription activity rate of Test Example 1 subtracted, 11A11B2 cells, 48 hours, read-out: IC50

COc1cc(N2C(=O)N(c3ccc(Cl)c(NC(=O)OC(C)C)c3)C(C)(C)C2=O)ccc1C#N [Example 25, 4-[3-(3-isopropoxycarbonylamino-4-chlorophenyl)-4,4-dimethyl-2,5-dioxoimidazolidin-1-yl]-2-methoxybenzonitrile]
EC5 (human androgen receptor [1]): >10 µM | IC50 (human androgen receptor [2]; [3]): 400 nM

CCS(=O)(=O)N1CCC(N2C(=S)N(c3ccc(C#N)c(C(F)(F)F)c3)C(=O)C2(C)C)CC1 [Example 5, 4-[3-(1-ethanesulfonylpiperidin-4-yl)-4,4-dimethyl-5-oxo-2-thioxoimidazolidin-1-yl]-2-trifluoromethylbenzonitrile]
EC5 (human androgen receptor [1]): >10 µM | IC50 (human androgen receptor [2]): 300 nM

CN(C)CCNC(=O)Nc1nc2cc(N3C(=S)N(c4ccc(C#N)c(Cl)c4)C(=O)C3(C)C)ccc2s1 [Example 61, 1-{5-[3-(3-chloro-4-cyanophenyl)-5,5-dimethyl-4-oxo-2-thioxoimidazolidin-1-yl]benzothiazol-2-yl}-3-(2-dimethylaminoethyl)urea]
EC5 (human androgen receptor [1]): >10 µM | IC50 (human androgen receptor [2]): 300 nM

CC1(C)C(=O)N(c2ccc(C#N)c(C(F)(F)F)c2)C(=S)N1c1ccc(Cl)c(NC(=O)OCCO)c1 [Example 46, {2-chloro-5-[3-(4-cyano-3-trifluoromethylphenyl)-5,5-dimethyl-4-oxo-2-thioxoimidazolidin-1-yl]phenyl}-carbamic acid 2-hydroxyethyl ester]
EC5 (human androgen receptor [1]): >10 µM | IC50 (human androgen receptor [2]): 300 nM

CN(C)CCOC(=O)Nc1cc(N2C(=S)N(c3ccc(C#N)c(Cl)c3)C(=O)C2(C)C)ccc1Cl [Example 53, {2-chloro-5-[3-(4-cyano-3-chlorophenyl)-5,5-dimethyl-4-oxo-2-thioxoimidazolidin-1-yl]phenyl}-carbamic acid 2-dimethylaminoethyl ester]
EC5 (human androgen receptor [1]): >10 µM

CCCS(=O)(=O)N1CCC(N2C(=S)N(c3ccc(C#N)c(Cl)c3)C(=O)C2(C)C)CC1 [Example 8, 4-[3-(1-propanesulfonylpiperidin-4-yl)-4,4-dimethyl-5-oxo-2-thioxoimidazolidin-1-yl]-2-chlorobenzonitrile]
EC5 (human androgen receptor [1]): >10 µM | IC50 (human androgen receptor [2]): 300 nM

CCS(=O)(=O)N1CCC(N2C(=O)N(c3ccc(C#N)c(C(F)(F)F)c3C)C(=O)C2(C)C)CC1 [Example 10, 4-[3-(1-ethanesulfonylpiperidin-4-yl)-4,4-dimethyl-2,5-dioxoimidazolidin-1-yl]-2-trifluoromethyl-3-methylbenzonitrile]
EC5 (human androgen receptor [1]): >10 µM | IC50 (human androgen receptor [2]; [3]): 600 nM

CC1(C)C(=O)N(c2ccc(C#N)c(Cl)c2)C(=S)N1c1ccc2sc(NC(=O)NCCO)nc2c1 [Example 63, 1-{5-[3-(3-chloro-4-cyanophenyl)-5,5-dimethyl-4-oxo-2-thioxoimidazolidin-1-yl]benzothiazol-2-yl}-3-(2-hydroxyethyl)urea]
EC5 (human androgen receptor [1]): >10 µM | IC50 (human androgen receptor [2]): 300 nM

COc1cc(N2C(=O)C(C)(C)N(c3ccc(Cl)c(NC(=O)OCC(O)CO)c3)C2=S)ccc1C#N (centres unmarked) [Example 51, {2-chloro-5-[3-(4-cyano-3-methoxyphenyl)-5,5-dimethyl-4-oxo-2-thioxoimidazolidin-1-yl]phenyl}-carbamic acid 2,3-dihydroxypropyl ester]
EC5 (human androgen receptor [1]): >10 µM

CC1(C)C(=O)N(c2ccc(C#N)c(C(F)(F)F)c2)C(=O)N1c1ccc(Cl)c(NC(=O)OCCCO)c1 [Example 27, {2-chloro-5-[3-(4-cyano-3-trifluoromethylphenyl)-5,5-dimethyl-2,4-dioxoimidazolidin-1-yl]phenyl}-carbamic acid 3-hydroxypropyl ester]
EC5 (human androgen receptor [1]): >10 µM | IC50 (human androgen receptor [2]; [3]): 400 nM

CN1C(=S)N(c2ccc(C#N)c(C(F)(F)F)c2)C(=O)C1(C)C [Comparative Example 1, 4-(5-oxo-2-thioxo-3,4,4-trimethyl-1-imidazolidinyl)-2-trifluoromethylbenzonitrile, reference compound]
EC5 (human androgen receptor [1]): 8e-05 µM

CCNC(=O)N1CCC(N2C(=S)N(c3ccc(C#N)c(C(F)(F)F)c3)C(=O)C2(C)C)CC1 [Example 38, 4-[3-(1-ethylaminocarbonylpiperidin-4-yl)-4,4-dimethyl-5-oxo-2-thioxoimidazolidin-1-yl]-2-trifluoromethylbenzonitrile]
EC5 (human androgen receptor [1]): >10 µM

CC1(C)C(=O)N(c2ccc(C#N)c(Cl)c2)C(=S)N1c1ccc2sc(NC(=O)NCC(O)CO)nc2c1 (centres unmarked) [Example 62, 1-{5-[3-(3-chloro-4-cyanophenyl)-5,5-dimethyl-4-oxo-2-thioxoimidazolidin-1-yl]benzothiazol-2-yl}-3-(2,3-dihydroxypropyl)urea]
EC5 (human androgen receptor [1]): >10 µM

CC1(C)C(=O)N(c2ccc(C#N)c(C(F)(F)F)c2)C(=S)N1c1ccc(Cl)c(NC(=O)CCC(N)=O)c1 [Example 67, N-{2-chloro-5-[3-(4-cyano-3-trifluoromethylphenyl)-5,5-dimethyl-4-oxo-2-thioxoimidazolidin-1-yl]phenyl}-succinamide]
EC5 (human androgen receptor [1]): >10 µM

CCNC(=O)N1CCC(N2C(=S)N(c3ccc(C#N)c(Cl)c3)C(=O)C2(C)C)CC1 [Example 40, 4-[3-(1-ethylaminocarbonylpiperidin-4-yl)-4,4-dimethyl-5-oxo-2-thioxoimidazolidin-1-yl]-2-chlorobenzonitrile]
EC5 (human androgen receptor [1]): >10 µM

CCNS(=O)(=O)N1CCC(N2C(=S)N(c3ccc(C#N)c(C(F)(F)F)c3)C(=O)C2(C)C)CC1 [Example 42, 4-[3-(1-ethylaminosulfonylpiperidin-4-yl)-4,4-dimethyl-5-oxo-2-thioxoimidazolidin-1-yl]-2-trifluoromethylbenzonitrile]
IC50 (human androgen receptor [2]; [3]): 700 nM

CC(=O)NCCN1C(=S)N(c2ccc(C#N)c(C(F)(F)F)c2)C(=O)C1(C)C [Comparative Example 2, 4-[3′-(2″-N-acetylaminoethyl)-4′,4′-dimethyl-5′-oxo-2′-thioxo-1′-imidazolidinyl]-2-trifluoromethylbenzonitrile, reference compound]
EC5 (human androgen receptor [1]): 3 µM

CC1(C)C(=O)N(c2ccc(C#N)c(C(F)(F)F)c2)C(=S)N1C1CCN(C(=O)OCC(O)CO)CC1 (centres unmarked) [Example 45, 4-[3-(4-cyano-3-trifluoromethylphenyl)-5,5-dimethyl-4-oxo-2-thioxoimidazolidin-1-yl]piperidine-1-carboxylic acid 2,3-dihydroxypropyl ester]
EC5 (human androgen receptor [1]): >10 µM
